What was measured:
SOS1 = biological target: T1, SOS1 (Homo sapiens, UniProt Q07889); assay: biochemical
T1 sequence (Q07889 1-1333): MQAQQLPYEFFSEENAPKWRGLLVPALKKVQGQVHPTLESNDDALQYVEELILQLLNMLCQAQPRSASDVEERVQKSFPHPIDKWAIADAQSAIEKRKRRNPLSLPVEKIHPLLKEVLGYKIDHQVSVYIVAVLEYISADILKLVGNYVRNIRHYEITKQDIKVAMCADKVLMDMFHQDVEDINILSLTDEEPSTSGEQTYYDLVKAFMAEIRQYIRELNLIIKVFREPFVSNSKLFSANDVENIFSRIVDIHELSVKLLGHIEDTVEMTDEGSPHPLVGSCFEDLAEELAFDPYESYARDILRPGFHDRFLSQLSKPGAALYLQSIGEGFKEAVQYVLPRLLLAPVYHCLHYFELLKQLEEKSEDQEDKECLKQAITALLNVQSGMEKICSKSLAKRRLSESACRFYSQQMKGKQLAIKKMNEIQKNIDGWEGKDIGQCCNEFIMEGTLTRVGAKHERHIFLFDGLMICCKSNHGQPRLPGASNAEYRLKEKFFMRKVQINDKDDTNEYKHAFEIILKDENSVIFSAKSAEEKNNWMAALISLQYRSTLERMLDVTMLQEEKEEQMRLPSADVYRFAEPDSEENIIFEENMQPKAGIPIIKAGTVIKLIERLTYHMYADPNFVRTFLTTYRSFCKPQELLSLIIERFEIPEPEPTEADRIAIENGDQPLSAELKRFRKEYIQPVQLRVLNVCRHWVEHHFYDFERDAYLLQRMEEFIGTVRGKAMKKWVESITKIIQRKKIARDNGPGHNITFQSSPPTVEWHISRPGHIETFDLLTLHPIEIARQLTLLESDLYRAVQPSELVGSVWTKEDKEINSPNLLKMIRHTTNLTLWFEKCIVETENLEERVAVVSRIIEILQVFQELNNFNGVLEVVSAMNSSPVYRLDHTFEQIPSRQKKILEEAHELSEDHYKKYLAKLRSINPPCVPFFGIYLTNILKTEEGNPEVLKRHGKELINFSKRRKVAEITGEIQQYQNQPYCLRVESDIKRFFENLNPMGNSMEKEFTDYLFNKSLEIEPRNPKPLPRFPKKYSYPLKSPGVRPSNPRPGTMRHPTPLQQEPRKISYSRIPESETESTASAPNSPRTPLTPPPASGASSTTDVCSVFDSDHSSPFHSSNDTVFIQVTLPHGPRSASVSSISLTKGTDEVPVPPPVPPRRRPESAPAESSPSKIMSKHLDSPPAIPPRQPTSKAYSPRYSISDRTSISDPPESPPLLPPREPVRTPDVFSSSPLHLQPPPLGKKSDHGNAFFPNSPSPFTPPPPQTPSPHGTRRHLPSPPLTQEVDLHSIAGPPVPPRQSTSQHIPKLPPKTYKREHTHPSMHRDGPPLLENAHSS

[1] = Rat liver microsomal metabolic stability; type: in vitro ADME; details: rat liver microsomes; for half-life at 1 µM: NADPH, 37°C; for CLint scaled at 1 µM: calculated from T1/2, fu defaulted to 1, read-out: CL(liver)
Excerpt: Metabolic stability affects the clearance rate, half-life, and oral bioavailability of compounds in the body, and is one of the most important ADME drug-like properties of compounds. Hepatocyte microsomal stability assay is a commonly used method for studying metabolic stability. In the present disclosure, rat liver microsomes are used to determine and investigate the metabolic stability of compounds.
Preparation of compound stock solution: an appropriate amount of the test compound and testosterone was taken, and a 1 mM stock solution was prepared with DMSO, which was stored in a refrigerator at 4°C.
Preparation of compound working solution: The 1 mM compound stock solution was taken respectively, and then diluted to 100 µM with acetonitrile-water (v:v = 1:1) to obtain the working solution.
Preparation of NADPH working solution: an appropriate amount of NADPH was weighed and dissolved in 16 mM MgCl2 to prepare a NADPH working solution with a concentration of 4.0 mM.
Preparation of rat liver microsome working solution: an appropriate amount of rat liver microsomes was taken and diluted with PBS to obtain a liver microsome working solution with a concentration of 1 mg/mL.
In the incubation system, 48 µL of PBS, 100 µL of rat liver microsome working solution, and 2 µL of the test compound working solution were sequentially added and mixed well. After pre-incubation at 37°C for 5 min, 50 µL of NADPH was added to initiate the reaction. After incubation for the corresponding time points, an appropriate amount of ice-cold acetonitrile containing an internal standard was added to terminate the reaction. The mixture was vortexed to mix well, centrifuged, and the supernatant was collected. The supernatant was injected into LC-MS/MS for detection of the residual metabolic amount of the compound.
Softwares of Excel, etc. were used for data processing according to the following formula. Ct = C0 •e^(−ke •t) [formula] when Ct = (1)/(2)C0 [formula] , T1/2 = (Ln2)/(ke) = (0.693)/(ke) [formula] CLint(mic) = (0.693)/(In vitro T1/2)•(1)/(mg/mL microsomal protein in reaction system) [formula] CLint(liver) = CLint(mic) •(mg microsomes)/(g liver)•(g liver)/(kg body weight) [formula] CL(liver) = (CLint(liver)×fu×Qh)/(CLint(liver)×fu+Qh) [formula] fu (unbound fraction in blood) was defaulted to be 1.

[2] = system: NCI-H358 non-small cell lung cancer cells; assay: Inhibition of NCI-H358 cell proliferation (CellTiter-Glo 3D, 7 days); type: cell-based; details: Homo sapiens, NCI-H358, 168 h, 3D microspheres, read-out: Inhibitory activity against NCI-H358 cell proliferation (IC50)
Procedure: The number of viable cells were detected by CellTiter-Glo 3D® reagent, thereby evaluating the inhibitory effect of compounds on cell proliferation. NCI-H358 non-small cell lung cancer cells (Nanjing cobioer) in the exponential growth phase were digested with trypsin-EDTA, and seeded into 96-well ultra-low attachment microplates at 100 µL per well with a density of 2000 cells/well. The cells were cultured overnight at 37°C with 5% CO2 to form microspheres. The test compounds were serially diluted 5-fold with DMSO to obtain 8 concentration gradient dilutions, then diluted with RPMI-1640 (10% FBS) cell culture medium respectively to obtain compound working solutions (2×). 100 µL per well was added to the cell supernatant, and the culture was continued for 7 days under the conditions of 37°C and 5% CO2. The well plate was removed, and 100 µL of CellTiter-Glo 3D® reagent was added. After lysis at room temperature for 10-30 minutes, 70 µL of the lysate was aspirated and transferred to a white opaque 384-well plate.
The inhibition rate was calculated by the following formula: [formula] Note: The negative control refers to the group without inhibitor, and the blank refers to the group without cells.
The inhibitory activities of some Example compounds and comparative compounds against NCI-H358 cell proliferation are shown in Table 2. Table 2. Inhibitory activity of some Example compounds against NCI-H358 cell proliferation

Q: For `C[C@@H](Nc1nnc(N2CCN(CC3CC3)CC2)c2cc(=O)n(C3(C)CC3)cc12)c1cccc(C(F)F)c1F` [Example 219, (R)-1-(4-(cyclopropylmethyl)piperazin-1-yl)-4-((1-(3-(difluoromethyl)-2-fluorophenyl)ethyl)amino)-6-(1-methylcyclopropyl) pyrido[3,4-d]pyridazin-7(6H)-one], which IC50 (SOS1) is on record?
A: Its IC50 is 0.0047 µM.

Q: What about the half-life at 1 µM [1] of the same molecule?
A: Its half-life at 1 µM is 2.8 h.

Q: And the CLint scaled at 1 µM [1]?
A: Its CLint scaled at 1 µM is 11.7 mL/min/kg.

Q: And the IC50 [2]?
A: The IC50 was 0.025 µM.

Q: Which IC50 (SOS1) does the source give for `CCNc1nnc(N[C@H](C)c2cccc(C(F)(F)F)c2C)c2cn(C3(C)CC3)c(=O)cc12` [Example 97, (R)-1-(ethylamino)-4-((1-(2-methyl-3-(trifluoromethyl)phenyl)ethyl)amino)-6-(1-methylcyclopropyl) pyrido[3,4-d]pyridazin-7(6H)-one] here?
A: The IC50 was 0.0051 µM.

Q: What about the half-life at 1 µM [1] of the same molecule?
A: Its half-life at 1 µM is 1.75 h.

Q: What about the CLint scaled at 1 µM [1] of the same molecule?
A: The CLint scaled at 1 µM was 16.7 mL/min/kg.

Q: What about the IC50 [2] of the same molecule?
A: The IC50 was 0.0368 µM.

Q: What does the source list for `Cc1c([C@@H](C)Nc2nnc(N3CCN(C(C)C)CC3)c3cc(=O)n(C4(C)CC4)cc23)cccc1C(F)(F)F` [Example 91, (R)-1-(4-isopropylpiperazin-1-yl)-4-((1-(2-methyl-3-(trifluoromethyl)phenyl)ethyl)amino)-6-(1-methylcyclopropyl) pyrido[3,4-d]pyridazin-7(6H)-one]?
A: IC50 (SOS1): 0.0057 µM; half-life at 1 µM [1]: 2.52 h; CLint scaled at 1 µM [1]: 12.7 mL/min/kg; IC50 [2]: 0.0385 µM

Q: With `C[C@@H](Nc1nnc(N2CCN(C)CC2)c2cc(=O)n(C3CC(F)(F)C3)cc12)c1cccc(C(F)F)c1F` [Example 90, (R)-6-(3,3-difluorocyclobutyl)-4-((1-(3-(difluoromethyl)-2-fluorophenyl)ethyl)amino)-1-(4-methylpiperazin-1-yl)pyrido[3,4-d]pyridazin-7(6H)-one] as the molecule, how does the IC50 (SOS1) read?
A: Its IC50 is 0.0042 µM.

Q: And the half-life at 1 µM [1]?
A: The half-life at 1 µM was 2.32 h.

Q: What about the CLint scaled at 1 µM [1] of the same molecule?
A: The CLint scaled at 1 µM was 13.5 mL/min/kg.

Q: And the IC50 [2]?
A: The IC50 was 0.0498 µM.

Q: What does the source list for `C[C@@H](Nc1nnc(N2CCN(C3CCC3)CC2)c2cc(=O)n(C3(C)CC3)cc12)c1cccc(C(F)F)c1F` [Example 220, (R)-1-(4-cyclobutylpiperazin-1-yl)-4-((1-(3-(difluoromethyl)-2-fluorophenyl)ethyl)amino)-6-(1-methylcyclopropyl) pyrido[3,4-d]pyridazin-7(6H)-one]?
A: IC50 (SOS1): 0.004 µM; half-life at 1 µM [1]: 1.34 h; CLint scaled at 1 µM [1]: 19.9 mL/min/kg; IC50 [2]: 0.0567 µM

Q: Which results are given for `C[C@@H](Nc1nnc(N2CCN(C3CCCC3)CC2)c2cc(=O)n(C3(C)CC3)cc12)c1cccc(C(F)F)c1F` [Example 221, (R)-1-(4-cyclopentylpiperazin-1-yl)-4-((1-(3-(difluoromethyl)-2-fluorophenyl)ethyl)amino)-6-(1-methylcyclopropyl) pyrido[3,4-d]pyridazin-7(6H)-one]?
A: IC50 (SOS1): 0.005 µM; half-life at 1 µM [1]: 1.12 h; CLint scaled at 1 µM [1]: 22.2 mL/min/kg; IC50 [2]: 0.0536 µM

Q: For `CC(C)N1CCN(c2nnc(N[C@H](C)c3cccc(C(F)F)c3F)c3cn(C4CCC4)c(=O)cc23)CC1` [Example 113, (R)-6-cyclobutyl-4-((1-(3-(difluoromethyl)-2-fluorophenyl)ethyl)amino)-1-(4-isopropylpiperazin-1-yl)pyrido[3,4-d]pyridazin-7(6H)-one], which IC50 (SOS1) is on record?
A: Its IC50 is 0.0045 µM.

Q: What about the half-life at 1 µM [1] of the same molecule?
A: The half-life at 1 µM was 2.25 h.

Q: And the CLint scaled at 1 µM [1]?
A: Its CLint scaled at 1 µM is 13.9 mL/min/kg.

Q: What about the IC50 [2] of the same molecule?
A: Its IC50 is 0.0242 µM.

Q: Which results are given for `CCN1CCN(c2nnc(N[C@H](C)c3cccc(C(F)(F)F)c3C)c3cn(C4(C)CC4)c(=O)cc23)CC1` [Example 104, (R)-1-(4-ethylpiperazin-1-yl)-4-((1-(2-methyl-3-(trifluoromethyl)phenyl)ethyl)amino)-6-(1-methylcyclopropyl) pyrido[3,4-d]pyridazin-7(6H)-one]?
A: IC50 (SOS1): 0.0075 µM; half-life at 1 µM [1]: 2.6 h; CLint scaled at 1 µM [1]: 12.4 mL/min/kg; IC50 [2]: 0.0297 µM

Q: Which results are given for `C[C@@H](Nc1nnc(N2CCN(C(C)(C)C)CC2)c2cc(=O)n(C3CC(F)(F)C3)cc12)c1cccc(C(F)F)c1F` [Example 108, (R)-6-(3,3-difluorocyclobutyl)-4-((1-(3-(difluoromethyl)-2-fluorophenyl)ethyl)amino)-1-(4-(tert-butyl)piperazin-1-yl)pyrido[3,4-d]pyridazin-7(6H)-one]?
A: IC50 (SOS1): 0.0055 µM; half-life at 1 µM [1]: 2.23 h; CLint scaled at 1 µM [1]: 13.9 mL/min/kg; IC50 [2]: 0.027 µM
